Measured values reported in PubChem BioAssay AID330 (DTP/NCI, 2004).
Values joined by “and” are separate entries in the source; they are usually repeats but may differ in a detail not shown here. Equal entries are not always repeated. Toxic doses and inconclusive results are not listed. Peptide text beside a SMILES is read from it. * marks the point of attachment. Cbz = O=C(OCc1ccccc1)*; Boc = CC(C)(C)OC(=O)*; OBn = c1ccc(CO*)cc1; NHNH2 = NN*

Tested on: P388 leukemia ip, CD2F1 mice, survival T/C
Test: NCI In Vivo Anticancer Drug Screen. Data for tumor model P388 Leukemia (intraperitoneal) in CD2F1 (CDF1) mice
Conditions: endpoint: median survival time, higher = longer survival
In short: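 Mice carrying the transplanted tumor received test compound or vehicle. Survival was recorded in each group, and the value is the treated-group measurement divided by that of the vehicle-treated control group.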

[1] = dose: 12.5 mg/kg/injection, schedule: Q01DX005 (ip), vehicle: saline with Tween-80
[2] = dose: 25.0 mg/kg/injection, schedule: Q01DX005 (ip), vehicle: saline with Tween-80
[3] = dose: 50.0 mg/kg/injection, schedule: Q01DX005 (ip), vehicle: saline with Tween-80
[4] = dose: 25.0 mg/kg/injection, schedule: Q01DX009 (ip), vehicle: other
[5] = dose: 50.0 mg/kg/injection, schedule: Q01DX009 (ip), vehicle: other
[6] = dose: 100.0 mg/kg/injection, schedule: Q01DX009 (ip), vehicle: other
[7] = dose: 200.0 mg/kg/injection, schedule: Q01DX009 (ip), vehicle: other
[8] = dose: 50.0 mg/kg/injection, schedule: Q01DX005 (ip), vehicle: Klucel (hydroxypropylcellulose) (HPC)
[9] = dose: 100.0 mg/kg/injection, schedule: Q01DX005 (ip), vehicle: Klucel (hydroxypropylcellulose) (HPC)
[10] = dose: 200.0 mg/kg/injection, schedule: Q01DX005 (ip), vehicle: Klucel (hydroxypropylcellulose) (HPC)
[11] = dose: 100.0 mg/kg/injection, schedule: Q01DX005 (ip), vehicle: saline with Tween-80
[12] = dose: 200.0 mg/kg/injection, schedule: Q01DX005 (ip), vehicle: saline with Tween-80
[13] = dose: 50.0 mg/kg/injection, schedule: Q04DX003 (ip), vehicle: water
[14] = dose: 60.0 mg/kg/injection, schedule: Q01DX005 (ip), vehicle: saline with Tween-80
[15] = dose: 120.0 mg/kg/injection, schedule: Q01DX005 (ip), vehicle: saline with Tween-80
[16] = dose: 240.0 mg/kg/injection, schedule: Q01DX005 (ip), vehicle: saline with Tween-80

C=CCOc1ccccc1N/N=C(\Cl)C(=O)OC
T/C [1]: 102 % of control | T/C [2]: 108 % of control | T/C [3]: 109 % of control and 114 % of control

CN(C)/C=C1\C(=O)O[C@H]2CCC[C@@]12C
T/C (dose: 100.0 mg/kg/injection, schedule: Q01DX001 (ip), vehicle: saline with Tween-80): 107 % of control | T/C (dose: 200.0 mg/kg/injection, schedule: Q01DX001 (ip), vehicle: saline with Tween-80): 106 % of control

CC1C(c2ccccc2)=Nn2c(=O)n(-c3ccccc3)c(=O)n21 (stereo not given)
T/C [4]: 90 % of control | T/C [5]: 91 % of control | T/C [6]: 91 % of control | T/C [7]: 89 % of control | T/C (dose: 400.0 mg/kg/injection, schedule: Q01DX009 (ip), vehicle: other): 86 % of control

CC(Nc1cnccn1)Nc1cnccn1
T/C [8]: 102 % of control | T/C [9]: 105 % of control | T/C [10]: 104 % of control

N#CCSCC(N)C(=O)O (stereo not given)
T/C [3]: 103 % of control | T/C [11]: 105 % of control | T/C [12]: 105 % of control

CCN(C(=O)CNCC(C)C)c1ccc(C)c(Cl)c1
T/C (dose: 50.0 mg/kg/injection, schedule: Q01DX005 (ip), vehicle: saline): 100 % of control | T/C (dose: 100.0 mg/kg/injection, schedule: Q01DX005 (ip), vehicle: saline): 99 % of control

CC[PH+](CC)CC.CC[PH+](CC)CC.[Au]
T/C (dose: 0.15 mg/kg/injection, schedule: Q01DX009 (ip), vehicle: water): 104 % of control and 91 % of control | T/C (dose: 0.31 mg/kg/injection, schedule: Q01DX009 (ip), vehicle: water): 100 % of control and 107 % of control | T/C (dose: 0.62 mg/kg/injection, schedule: Q01DX009 (ip), vehicle: water): 118 % of control and 122 % of control | T/C (dose: 1.25 mg/kg/injection, schedule: Q01DX009 (ip), vehicle: water): 118 % of control

O=c1[nH]c(=O)n([C@H]2CCCO2)cc1F
T/C (dose: 44.0 mg/kg/injection, schedule: Q01DX009 (ip), vehicle: Klucel (hydroxypropylcellulose) (HPC)): 111 % of control | T/C (dose: 50.0 mg/kg/injection, schedule: Q01DX009 (ip), vehicle: saline with Tween-80): 104 % of control | T/C (dose: 59.0 mg/kg/injection, schedule: Q01DX009 (ip), vehicle: Klucel (hydroxypropylcellulose) (HPC)): 114 % of control | T/C (dose: 90.0 mg/kg/injection, schedule: Q01DX009 (ip), vehicle: Klucel (hydroxypropylcellulose) (HPC)): 124 % of control | T/C (dose: 142.0 mg/kg/injection, schedule: Q04DX003 (ip), vehicle: Klucel (hydroxypropylcellulose) (HPC)): 109 % of control | T/C (dose: 189.0 mg/kg/injection, schedule: Q04DX003 (ip), vehicle: Klucel (hydroxypropylcellulose) (HPC)): 115 % of control | T/C (dose: 200.0 mg/kg/injection, schedule: Q01DX009 (ip), vehicle: saline with Tween-80): 93 % of control | T/C (dose: 201.0 mg/kg/injection, schedule: Q01DX009 (ip), vehicle: Klucel (hydroxypropylcellulose) (HPC)): 95 % of control | T/C (dose: 316.0 mg/kg/injection, schedule: Q01DX001 (ip), vehicle: Klucel (hydroxypropylcellulose) (HPC)): 107 % of control | T/C (dose: 421.0 mg/kg/injection, schedule: Q01DX001 (ip), vehicle: Klucel (hydroxypropylcellulose) (HPC)): 115 % of control | T/C (dose: 641.0 mg/kg/injection, schedule: Q01DX001 (ip), vehicle: Klucel (hydroxypropylcellulose) (HPC)): 120 % of control | T/C (dose: 645.0 mg/kg/injection, schedule: Q04DX003 (ip), vehicle: Klucel (hydroxypropylcellulose) (HPC)): 120 % of control

c1ccc2c(NCCCCCCCCCCNc3c4ccccc4nc4ccccc34)c3ccccc3nc2c1
T/C (dose: 0.62 mg/kg/injection, schedule: Q## X009 (ip), vehicle: lactic acid): 104 % of control | T/C (dose: 1.25 mg/kg/injection, schedule: Q## X009 (ip), vehicle: lactic acid): 118 % of control | T/C (dose: 5.0 mg/kg/injection, schedule: Q## X009 (ip), vehicle: lactic acid): 120 % of control | T/C (dose: 10.0 mg/kg/injection, schedule: Q## X009 (ip), vehicle: lactic acid): 90 % of control

COc1cccc2c1C(=N)c1c(O)c3c(c(O)c1C2=O)C[C@@](O)(C(O)CO)C[C@@H]3OC1CC(N2CCOCC2)C(O)C(C)O1 (stereo not given in full)
T/C (dose: 3.12 mg/kg/injection, schedule: Q04DX003 (ip), vehicle: water): 112 % of control and 115 % of control | T/C (dose: 6.25 mg/kg/injection, schedule: Q04DX003 (ip), vehicle: water): 118 % of control | T/C (dose: 12.5 mg/kg/injection, schedule: Q04DX003 (ip), vehicle: water): 108 % of control and 120 % of control | T/C (dose: 18.7 mg/kg/injection, schedule: Q04DX003 (ip), vehicle: water): 105 % of control | T/C [13]: 115 % of control and 161 % of control and 221 % of control | T/C (dose: 75.0 mg/kg/injection, schedule: Q04DX003 (ip), vehicle: water): 118 % of control

Oc1ccc(O)c2c(O)c3ccccc3c(O)c12
T/C [3]: 102 % of control | T/C [11]: 107 % of control | T/C [12]: 93 % of control

NCCCCC(NC(=O)OCc1ccccc1)C(=O)NC(CCCCN)C(=O)NC(CCCCN)C(=O)NC(Cc1c[nH]c2ccccc12)C(=O)OCc1ccccc1 (stereo not given) (Cbz-KKKW-OBn; configuration not given here)
T/C [8]: 100 % of control | T/C [9]: 96 % of control | T/C [10]: 100 % of control

C#CCOc1ccc(O)c(C(=O)OCCCOC(=O)c2cc(OCC#C)ccc2O)c1
T/C [14]: 104 % of control | T/C [15]: 98 % of control | T/C [16]: 100 % of control

CC1C=CC(C)C2C(=O)C3C(C)C=CC(C)C3C(=O)C12 (stereo not given)
T/C [8]: 93 % of control | T/C [9]: 97 % of control | T/C [10]: 87 % of control

CCC[CH2][Sn]([CH2]CCC)([n]1ccnc1)[n]1ccnc1
T/C (dose: 3.12 mg/kg/injection, schedule: Q01DX005 (ip), vehicle: Klucel (hydroxypropylcellulose) (HPC)): 116 % of control | T/C (dose: 6.25 mg/kg/injection, schedule: Q01DX005 (ip), vehicle: Klucel (hydroxypropylcellulose) (HPC)): 110 % of control

NC(=O)c1ccnn1C1OC(CO)C(O)C1O (stereo not given)
T/C (dose: 32.0 mg/kg/injection, schedule: Q01DX002 (ip), vehicle: saline): 107 % of control and 116 % of control | T/C (dose: 64.0 mg/kg/injection, schedule: Q01DX002 (ip), vehicle: saline): 104 % of control and 112 % of control | T/C (dose: 128.0 mg/kg/injection, schedule: Q01DX002 (ip), vehicle: saline): 107 % of control

NC(=O)C1C=CN(Cc2ccccc2)C=C1
T/C (dose: 30.0 mg/kg/injection, schedule: Q01DX005 (ip), vehicle: saline with Tween-80): 105 % of control and 106 % of control | T/C [14]: 108 % of control and 111 % of control and 123 % of control | T/C [15]: 117 % of control and 118 % of control | T/C [16]: 108 % of control and 123 % of control

O=C1NC2(CCCCC2)C(=O)N1CCCCCN(CCCl)CCCl
T/C (dose: 1.5 mg/kg/injection, schedule: Q01DX005 (ip), vehicle: saline): 111 % of control | T/C (dose: 3.0 mg/kg/injection, schedule: Q01DX005 (ip), vehicle: saline): 119 % of control | T/C (dose: 40.0 mg/kg/injection, schedule: Q01DX005 (ip), vehicle: saline): 160 % of control

COc1ccc2c(c1)N(C(=O)CN1CCN(C)CC1)c1ccccc1S2
T/C (dose: 25.0 mg/kg/injection, schedule: Q04DX002 (ip), vehicle: saline): 99 % of control | T/C (dose: 50.0 mg/kg/injection, schedule: Q04DX002 (ip), vehicle: saline): 102 % of control | T/C (dose: 100.0 mg/kg/injection, schedule: Q04DX002 (ip), vehicle: saline with Tween-80): 100 % of control | T/C (dose: 100.0 mg/kg/injection, schedule: Q04DX002 (ip), vehicle: saline): 99 % of control

CC(NC(=O)C(Cc1c[nH]c2ccccc12)NC(=O)OC(C)(C)C)C(=O)NN (stereo not drawn) (Boc-Trp-Ala-NHNH2; configuration not given here)
T/C (dose: 12.5 mg/kg/injection, schedule: Q01DX009 (ip), vehicle: other): 98 % of control | T/C [4]: 100 % of control | T/C [5]: 105 % of control | T/C [6]: 109 % of control | T/C [7]: 119 % of control

Fc1cccc(F)n1
T/C (dose: 25.0 mg/kg/injection, schedule: Q04DX003 (ip), vehicle: water): 91 % of control | T/C [13]: 103 % of control | T/C (dose: 100.0 mg/kg/injection, schedule: Q04DX003 (ip), vehicle: water): 100 % of control | T/C (dose: 200.0 mg/kg/injection, schedule: Q04DX003 (ip), vehicle: water): 100 % of control | T/C (dose: 400.0 mg/kg/injection, schedule: Q04DX003 (ip), vehicle: water): 104 % of control

CCCCN(CCCC)CCCNc1c2c(nc3ccc(Cl)cc13)CCCC2
T/C [1]: 102 % of control | T/C [2]: 104 % of control | T/C [3]: 99 % of control and 101 % of control
